Results on nine molecules are retold here after patent US5747235A, “Silver halide light sensitive emulsion layer having enhanced photographic sensitivity” (Eastman Kodak Company, priority 1996, dated 1998).

SMILES strings stand for the structures. Structures can show the parent of a compound that is named as a salt.

What all share (format): physicochemical
Series [1] can be described thus: oxidation potential E1 by cyclic voltammetry. The settings on record: for E1 (V) for XY moiety: Table H, model compound, A and L replaced by alkyl. Summed up: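 Compound in 80:20 (v/v) acetonitrile/water with 0.1M lithium perchlorate, nitrogen-purged 10 minutes. Glassy carbon working, platinum wire counter and saturated calomel reference electrodes; 25° C, sweep rate 0.1 V/sec. E1 is the voltammetric peak potential vs. SCE.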

Series [2] can be described thus: oxidation potential E2 of radical X by laser flash photolysis. The settings on record: Table H; model compound, A and L replaced by alkyl. Summed up: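 Radical X· generated by fragmentation of X-Y·+, formed via 410 nm laser-excited cyanoanthracene (ca. 2×10^-5–10^-4 M) with biphenyl (ca. 0.1 M) cosensitiser and X-Y (ca. 10^-3 M) in acetonitrile or 80:20 acetonitrile/water. E2 bracketed by observing second-acceptor reduction (DCA −0.91 V, TriCA −0.67 V, TCA −0.44 V) by transient absorption near 705–715 nm.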

The nature of series [3]: fragmentation rate constant kfr by laser flash photolysis. The conditions noted are these: Table H; model compound, A and L replaced by alkyl. Summed up: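 DCA excited by laser in presence of biphenyl and ca. 10^-2 M donor generates X-Y radical cation; its decay was monitored at mostly 470-530 nm. Run in acetonitrile with 20% water, mostly at room temperature, some rates extrapolated from temperature dependence; oxygen purging used for decays below 10^6 s^-1.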

For the molecule `CCSCCN(c1ccc(C)cc1)[C@@H](C)C(=O)[O-].[Na+]` [Compound S-3, N-(4-Methylphenyl)-N-(2-ethylthio-ethyl)alanine sodium salt], the “E1 (V) for XY moiety” value in series [1] is on record as 0.34 V. Besides, the “E1 (V)” value in series [1] (Table II) is reported as 0.47 V; in series [1] (Table III) it was 0.38 V; in series [1] (Table X), 0.38 V. The “E2 (V) for XY moiety” value in series [2] was under -0.9 V. The “kfr (s^-1) for XY moiety” value in series [3] worked out at 6e+07 s⁻¹.

On to `CCSCCN(c1ccc(C)cc1)C(CC(=O)O)C(=O)O` (stereo not drawn) [Compound S-8], for which, in series [1], the “E1 (V) for XY moiety” value is recorded as 0.38 V. In addition, the “E1 (V)” value in series [1] (Table III) and in series [1] (Table X) was 0.45 V throughout. Moreover, the “E2 (V) for XY moiety” value in series [2] is under -0.9 V. Besides, in series [3], the “kfr (s^-1) for XY moiety” value turned out to be 1.3e+07 s⁻¹.

Turning to `CCSCCN(c1ccccc1)C(C)C(=O)O` (stereo not drawn) [Compound S-9, N-(Phenyl)-N-(2-thioethyl-ethyl)alanine sodium salt], the “E1 (V) for XY moiety” value in series [1] is 0.43 V. The “E1 (V)” value in series [1] (Table III), in series [1] (Table IV) and in series [1] (Table X) was 0.43 V in each case. Moreover, the “E2 (V) for XY moiety” value in series [2] is under -0.9 V. Besides, in series [3], the “kfr (s^-1) for XY moiety” value is over 2e+07 s⁻¹.

With `CCSCCN(c1ccc(C(=O)O)cc1)C(C)C(=O)O` (stereo not drawn) [Compound S-11], the “E1 (V) for XY moiety” value in series [1] is on record as 0.54 V. Moreover, the entries for the “E1 (V)” value in series [1] (Table IV), in series [1] (Table IX) and in series [1] (Table XI) were 0.55 V, 0.54 V and 0.54 V, respectively. For the same molecule, the “E2 (V) for XY moiety” value in series [2] is under -0.9 V. In series [3], the “kfr (s^-1) for XY moiety” value was over 2e+07 s⁻¹.

`CCSCCN(c1ccc(Cl)cc1)C(C)C(=O)O` (stereo not drawn) [Compound S-12, N-(4-Chlorophenyl)-N-(2-thioethyl-ethyl)alanine sodium salt]: the “E1 (V) for XY moiety” value in series [1] is 0.40 V. Also, the “E1 (V)” value in series [1] (Table IV) and in series [1] (Table XI) was 0.51 V throughout. The “E2 (V) for XY moiety” value in series [2] is given as under -0.9 V. In series [3], the “kfr (s^-1) for XY moiety” value is over 2e+07 s⁻¹.

In the case of `CCSCCN(c1cccc(C(N)=O)c1)C(C)C(=O)O` (stereo not drawn) [Compound S-13], the “E1 (V) for XY moiety” value in series [1] worked out at 0.52 V. The “E1 (V)” value in series [1] (Table IV), in series [1] (Table IX) and in series [1] (Table XI) was 0.53 V throughout. For the same molecule, the “E2 (V) for XY moiety” value in series [2] was under -0.9 V. Also, the “kfr (s^-1) for XY moiety” value in series [3] was over 2e+07 s⁻¹.

For the molecule `CCSCCN(c1ccccc1)C(CC(=O)O)C(=O)O` (stereo not drawn) [Compound S-14], the “E1 (V) for XY moiety” value in series [1] is listed as 0.48 V. The “E1 (V)” value in series [1] (Table IX) and in series [1] (Table XI) was 0.51 V each time. Moreover, the “E2 (V) for XY moiety” value in series [2] is under -0.9 V. For the same molecule, in series [3], the “kfr (s^-1) for XY moiety” value was over 2e+07 s⁻¹.

Regarding `Cc1ccc(N(CCC(=O)Nc2cccc(-n3nnnc3S)c2)C(C)C(=O)O)cc1` (stereo not drawn) [PMT-1], in series [1], the “E1 (V) for XY moiety” value is reported as 0.34 V. In addition, in series [2], the “E2 (V) for XY moiety” value is on record as under -0.9 V. Besides, the “kfr (s^-1) for XY moiety” value in series [3] is over 2e+07 s⁻¹.

Regarding `CC(C(=O)O)N(CCC(=O)Nc1cccc(-n2nnnc2S)c1)c1ccccc1` (stereo not drawn) [PMT-2], the “E1 (V) for XY moiety” value in series [1] was found to be 0.43 V. Also, the “E2 (V) for XY moiety” value in series [2] is under -0.9 V. The “kfr (s^-1) for XY moiety” value in series [3] was over 2e+07 s⁻¹.
